Reference: PubChem BioAssay (NCI)
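Step 1: Grow cells in 96-well plates. Step 2: Expose to compound for 48 hours at 5 concentrations. Step 3: Interpolate endpoints linearly; if unreached, use highest concentration. The concentration for full growth arrest is given as TGI.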

Key:
Assay in all cases: inhibition of tumour cell growth, NCI panel, 48 h
[1] = system: M14 melanoma
[2] = system: UO-31 renal
[3] = system: NCI-H226 lung
[4] = system: HCT-116 colon
[5] = system: CCRF-CEM leukemia
[6] = system: SN12C renal
[7] = system: SF-539 CNS
[8] = system: HT29 colon
[9] = system: LOX IMVI melanoma
[10] = system: SK-MEL-28 melanoma
[11] = system: SF-268 CNS
[12] = system: EKVX NSCLC
[13] = system: KM12 colon
[14] = system: CAKI-1 renal
[15] = system: SK-OV-3 ovarian
[16] = system: HCT-15 colon
[17] = system: SW-620 colon
[18] = system: PC-3 prostate

Compound	TGI [1] [µM]	TGI [2] [µM]	TGI [3] [µM]	TGI [4] [µM]	TGI [5] [µM]	TGI [6] [µM]	TGI [7] [µM]	TGI [8] [µM]	TGI [9] [µM]	TGI [10] [µM]	TGI [11] [µM]	TGI [12] [µM]	TGI [13] [µM]	TGI [14] [µM]	TGI [15] [µM]	TGI [16] [µM]	TGI [17] [µM]	TGI [18] [µM]
O=C(Cc1csc(-c2nc(CC(=O)NNc3ccccc3)cs2)n1)NNc1ccccc1	> 100	> 100	> 100	> 100	> 100	> 100	> 100	> 100	43.7	> 100	> 100	> 100	> 100	> 100	> 100	> 100	–	–
COc1ccc(C2Oc3cc(OC)c(O)c(C)c3[C@H]2C)cc1 (some centres not stated)	> 100	78	> 100	> 100	> 100	–	> 100	> 100	> 100	> 100	> 100	> 100	> 100	> 100	> 100	> 100	> 100	–
CC(C)(C)NC(=O)NC12CC3CC(CC(F)(C3)C1)C2	> 100	> 100	–	> 100	> 100	–	> 100	> 100	> 100	> 100	–	> 100	> 100	–	> 100	–	> 100	–
CS(=O)(=O)c1c(N)c2nc(Cl)cn2c2nc3ccccc3nc12	> 100	> 100	> 100	> 100	> 100	> 100	> 100	> 100	> 100	> 100	> 100	> 100	> 100	> 100	> 100	> 100	> 100	–
Clc1ccccc1C1=NN(c2ccccc2)C2c3ccccc3OCC12 (configuration not stated)	–	> 100	–	> 100	> 100	–	–	> 100	> 100	> 100	> 100	> 100	> 100	–	> 100	–	> 100	–
CC(C)CCC[C@@H](C)C1CCC2[C@@H]3CC=C4C[C@@H](C(=O)NCC[N+](C)(C)CCCS(=O)(=O)[O-])CC[C@]4(C)C3CC[C@@]21C (some centres not stated)	31.6	34.3	37.9	30.9	31.5	32.6	36.6	33	25.2	34.5	37.8	31	31.5	27.2	30.9	30.9	30.7	–
CCN1C[C@]2(C)CC[C@H](OC)C34C1C([C@H](OC(C)=O)[C@@H]32)[C@@]1(OC)C[C@H](OC)[C@H]2C[C@@H]4[C@@H]1[C@H]2O	> 100	> 100	> 100	> 100	> 100	> 100	> 100	> 100	> 100	> 100	> 100	> 100	> 100	> 100	> 100	> 100	> 100	–
c1ccc(C2=NOC3(c4ccccc4)SC4CCCCC4CN23)cc1 (configuration not stated)	49.3	> 100	> 100	50.4	31.6	> 100	39.2	> 100	34	> 100	95.5	> 100	88.9	63.8	> 100	> 100	> 100	–
CN1CCCCC(C#N)(c2ccccc2)CC1 (configuration not stated)	> 100	> 100	–	> 100	> 100	–	–	> 100	–	> 100	> 100	> 100	> 100	> 100	> 100	> 100	> 100	> 100
CN(C)/N=C(/c1nc2ccc([N+](=O)[O-])cc2[nH]c1=O)C(O)c1ccco1 (configuration not stated)	> 100	90.5	> 100	> 100	> 100	> 100	> 100	> 100	> 100	> 100	> 100	–	> 100	> 100	> 100	> 100	> 100	–
O=c1[nH]c2cc([N+](=O)[O-])ccc2nc1/C(=N/Nc1ccccc1)C(O)c1ccc(C(O)/C(=N\Nc2ccccc2)c2cnc3cc([N+](=O)[O-])ccc3n2)cc1 (configuration not stated)	> 100	> 100	–	> 100	> 100	> 100	> 100	> 100	–	> 100	> 100	> 100	> 100	> 100	> 100	–	> 100	–
